Values of other authors, collected in article PMC2033546, “Effects of somatostatin analogue RC-160 and bombesin/gastrin-releasing peptide antagonists on the growth of human small-cell and non-small-cell lung carcinomas in nude mice” (British Journal of Cancer, 1994).
Where no end group is shown, it is not given here.

System: EGF receptors
Conditions: various cancer lines and cancer specimens; ref Liebow et al., 1992; cited from earlier work
Excerpt: Br. J. Cancer (1994). 70, 886 892 ? Macmillan Press Ltd..

## gastrin-releasing peptide (VPLPAGGGTVLTKMYPRGNHWAVGHLM; ends and bridges not checked; UniProt P07492 24-50, looked up) [GRP]
  Effect on phosphorylation of EGF receptors (in words): enhance the phosphorylation of EGF receptors
